In patent US4127665A, “Thienohydantoin derivatives” (Pfizer Inc., priority 1978, dated 1978):
Like-named read-outs stand apart in the source and are kept apart here. Blank lines part the entries; values can stand above or below the compound they belong to.

Legend:
aldose reductase = target: T1, aldose reductase (Bos taurus, UniProt P16116); assay: Inhibition of aldose reductase enzyme activity (partially purified enzyme from calf lens); type: biochemical; details: for inhibition at 100 µM: 10^-4 M; for inhibition at 10 µM: 10^-5 M; for inhibition at 1 µM: 10^-6 M; for inhibition at 1 µM / inhibition at 0.1 µM: low negative values not significant; for inhibition at 0.1 µM: 10^-7 M
T1 construct: partially purified aldose reductase enzyme obtained from calf lens; from tissue; host or cells: calf lens
Description: The spiro-thienohydantoins of Examples 1 through 5 were tested for their ability to reduce or inhibit aldose reductase enzyme activity, following the procedure described in U.S. Pat. No. 3,821,383 and based on the procedure of Hayman et. al., Journal of Biological Chemistry, 240, 877 (1965). The substrate employed was partially purified aldose reductase enzyme obtained from calf lens. The results obtained with each compound at a concentration of 10^-4 M are expressed as percent inhibition of enzyme activity.
The test of Example 6 was repeated at different concentrations of the compound under test, namely 10^-4 M, 10^-5 M, 10^-6 M, and 10^-7 M.
In this test, values below 20 are not always experimentally and statistically significant.

[1] = tested on: sorbitol accumulation in the sciatic nerve of streptozotocinized (i.e., diabetic) rats; assay: Inhibition of sorbitol accumulation in the sciatic nerve of streptozotocinized (diabetic) rats; type: in vivo, rat; details: measured 27 hours after induction, vs untreated
Description: The compounds of Examples 4 and 5 were tested for their ability to reduce or inhibit sorbitol accumulation in the sciatic nerve of streptozotocinized (i.e., diabetic) rats by the procedure essentially described in U.S. Pat. No. 3,821,383. In the present study, the amount of sorbitol accumulation in the sciatic nerves was measured 27 hours after induction of diabetes. The compounds were administered orally at the dose levels indicated at 4, 8 and 24 hours following the administration of streptozotocin. The results obtained in this manner are presented below in terms of percent inhibition (%) afforded by the test compound as compared to the case where no compound was administered (i.e., the untreated animal where sorbitol levels normally rise from approximately 50-100 mM/g. tissue to as high as 400 mM/g. tissue in the 27-hour test period): […]

[2] = Example 6 test, calf lens enzyme, read-out: % Inhibition at 10^-4 M
[3] = Example 7 repeat test, values below 20 not always significant, read-out: % Inhibition
[4] = Example 7 repeat test, values below 20 not always significant

Structure (SMILES): O=C1NC(=O)C2(CCc3cscc32)N1 (stereo not shown) [Example 3]
- inhibition at 100 µM (aldose reductase; [2]): 46%

Structure (SMILES): O=C1NC(=O)C2(CCCc3sccc32)N1 (stereo not shown) [Example 5, 6,7-dihydro-spiro[benzo(b)thiophene-4(5H),4'-imidazolidine]-2',5'-dione]
- inhibition at 100 µM (aldose reductase; [2]): 52%
- % Inhibition (sorbitol accumulation in sciatic nerve) ([1]; 25 mg/kg orally at 4, 8 and 24 hours after streptozotocin): 56%

The next lines start with results.

- inhibition at 100 µM (aldose reductase; [2]): 83%
- inhibition at 100 µM (aldose reductase; [3]): 88%
- inhibition at 10 µM (aldose reductase; [4]): 67%
- inhibition at 1 µM (aldose reductase; [4]): 12%
- inhibition at 0.1 µM (aldose reductase; [4]): -7%
Structure (SMILES): O=C1NC(=O)C2(CCc3c(Cl)sc(Cl)c32)N1 (stereo not shown) [Example 1]

- inhibition at 100 µM (aldose reductase; [2]): 95%
- inhibition at 100 µM (aldose reductase; [3]): 35%
- inhibition at 10 µM (aldose reductase; [4]): 67%
- inhibition at 1 µM (aldose reductase; [4]): -12%
- inhibition at 0.1 µM (aldose reductase; [4]): 21%
Structure (SMILES): O=C1NC(=O)C2(CCc3c2csc3Cl)N1 (stereo not shown) [Example 2]

- inhibition at 100 µM (aldose reductase; [2]): 80%
- inhibition at 100 µM (aldose reductase; [3]): 75%
- inhibition at 10 µM (aldose reductase; [4]): 55%
- inhibition at 1 µM (aldose reductase; [4]): 18%
- inhibition at 0.1 µM (aldose reductase; [4]): 15%
Structure (SMILES): O=C1NC(=O)C2(CCc3sc(Cl)cc32)N1 (stereo not shown) [Example 4]
- % Inhibition (sorbitol accumulation in sciatic nerve) ([1]; 2.5 mg/kg orally at 4, 8 and 24 hours after streptozotocin): 20%
